Target: T1, mycL-Hmg2-GFP (1myc-Hmg2-GFP; Hmg2 transmembrane region) (Saccharomyces cerevisiae, UniProt P12684)
T1 sequence (P12684 1-535 limits assumed): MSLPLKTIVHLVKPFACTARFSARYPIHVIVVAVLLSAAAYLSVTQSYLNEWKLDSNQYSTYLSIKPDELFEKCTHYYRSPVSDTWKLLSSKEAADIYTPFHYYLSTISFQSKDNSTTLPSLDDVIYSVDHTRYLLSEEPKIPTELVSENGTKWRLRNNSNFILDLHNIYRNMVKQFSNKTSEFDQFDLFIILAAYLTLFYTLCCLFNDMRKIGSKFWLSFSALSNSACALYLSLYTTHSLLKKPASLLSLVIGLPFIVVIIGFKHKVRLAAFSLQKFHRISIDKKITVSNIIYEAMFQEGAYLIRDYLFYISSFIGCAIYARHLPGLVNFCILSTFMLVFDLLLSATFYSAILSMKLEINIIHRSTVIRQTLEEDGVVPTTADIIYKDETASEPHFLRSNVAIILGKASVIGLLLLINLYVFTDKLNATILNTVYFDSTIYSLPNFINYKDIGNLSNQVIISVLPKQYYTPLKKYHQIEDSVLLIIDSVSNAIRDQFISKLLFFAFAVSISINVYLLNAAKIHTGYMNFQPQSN
Experiment: limited trypsin proteolysis of microsomes, anti-myc immunoblot
Type: biochemical

- EC50: < 200 nM
SMILES: CC(C)=CCC/C(C)=C/CC/C(C)=C/CC/C(C)=C/COP(=O)(O)OP(=O)(O)O [GGPP, geranylgeranyl pyrophosphate]

From paper doi:10.1101/177311v3 (biorxiv, 2018)
